Tests used:
Type in all cases: in vivo
[1] = system: Zea mays (corn), cv. 'Lorenzo'; experiment: Post-emergence application of herbicide after seed dressing with safener; conditions: for Safener action as % damage reduction in crop plants: ZEAMA
Experimental: (§1) The number of crop plant seeds required for each application rate of safener was calculated. Sufficient seeds were weighed out into glass bottles having a screw-on lid. The volume of the glass bottles was approximately twice that of the seeds weighed out.
(§2) The safeners were formulated as 20 percent strength water-dispersible powders. These formulations were weighed out to give the required application rates (g of a.i./kg of seed). The samples were added to the seeds in the glass containers, and sufficient water to form a suitable seed dressing was then added. The glass bottles were closed and then mounted in an overhead shaker (which turns the bottles at moderate speed for a period of up to one hour) so that the seeds were uniformly covered with the seed dressing. The bottles were opened and the seeds were ready for use in pre-emergence or post-emergence experiments, as described below.
(§3) The seeds treated with safener and untreated seeds were sown in sandy loam soil in round plastic pots of a diameter of 13 cm and covered with a layer of sandy loam of a thickness of about 1 cm. The pots were placed in a greenhouse under favorable growth conditions for a period of about two to three weeks, allowing the plants to reach a growth stage of 2 to 4 leaves. The herbicides in the form of liquid (for example emulsion concentrates) or dry (for example water-dispersible powders) formulations were mixed with a standard additive (based on rapeseed oil methyl ester), diluted with deionized water to the required concentrations and applied to the green parts of the plants and the uncovered part of the soil surface with a spray bar using a water application rate of 300 liters per hectare. In the experiment shown below, safener and the herbicide foramsulfuron were in each case used as 20 percent strength water-dispersible powder (results see table 2.3.1).
(§4) The pots were placed in a greenhouse under favorable growth conditions. Visual scoring of the herbicidal action was carried out four weeks after the herbicide application. Evaluation was carried out on a percentage base by comparison with untreated control plants (0%=no noticeable effect compared with the untreated plant, 100%=treated plant dies).

Amaranthus retroflexus = experiment: Post-emergence application of herbicide and safener by the tank mix method: herbicidal action; conditions: four weeks
Excerpt: as §3, with “Seeds of various crop plants” for “The seeds treated with safener”, “weed species” for “untreated seeds”, “1.2.1).” for “2.3.1).”
as §4, with “basis” for “base”

Setaria viridis [2] = experiment: as above; conditions: four weeks
Excerpt: as §3, with “Seeds of various crop plants” for “The seeds treated with safener”, “weed species” for “untreated seeds”, “1.2.1).” for “2.3.1).”
as §4, with “basis” for “base”

[3] = system: Zea mays (corn), cv. 'Lorenzo'; experiment: Post-emergence application of herbicide and safener by the tank mix method: crop damage; conditions: for Safener action as % damage reduction in crop plants: ZEAMA
Excerpt: as §3, with “Seeds of various crop plants” for “The seeds treated with safener”, “weed species” for “untreated seeds”, “1.2.1).” for “2.3.1).”
as §4, with “basis” for “base”

[4] = system: Zea mays (corn), cv. 'Lorenzo'; experiment: Pre-emergence application of herbicide and safener by the tank mix method: crop damage
Experimental: (§5) Seeds of various crop plants and weed species were sown in sandy loam soil in plastic pots of a diameter of 13 cm and covered with a layer of sandy loam of a thickness of about 1 cm. Herbicides and safeners in the form of liquid (for example emulsion concentrates) or dry (for example water-dispersible powders) formulations were diluted with deionized water to the required concentration and applied to the surface of the soil with a spray bar using a water application rate of 300 liters per hectare. In the experiment shown below, the safeners were used as 20 percent strength water-dispersible powders and the herbicide isoxaflutole was used as an aqueous suspension concentrate (see table 1.1.1).
as §4, with “basis” for “base”

[5] = system: Glycine max (soybean), cv. 'Lambert'; experiment: Pre-emergence application of herbicide after seed dressing with safener; conditions: for Safener action as % damage reduction in crop plants: GLXMA
Experimental: as §1, §2
(§6) The seeds which had been treated with safeners and untreated seeds as controls were sown in sandy loam soil in round plastic pots of a diameter of 13 cm and covered with a layer of sandy loam of a thickness of about 1 cm. The herbicides in the form of liquid (for example emulsion concentrates) or dry (for example water-dispersible powders) formulations were diluted with deionized water to the required concentrations and applied to the surface of the soil with a spray bar using a water application rate of 300 liters per hectare. In the two experiments shown below (results see tables 2.2.1 and 2.2.2), the herbicide isoxaflutole was used as an aqueous suspension concentrate.
as §4, with “basis” for “base”

[6] = system: Zea mays (corn), cv. 'Lorenzo'; experiment: as above; conditions: for Safener action as % damage reduction in crop plants: ZEAMA
Experimental: as §1, §2, §6
as §4, with “basis” for “base”

Setaria viridis [7] = experiment: Pre-emergence application of herbicide and safener by the tank mix method: herbicidal action; conditions: four weeks
Experimental: as §5
as §4, with “basis” for “base”

Chenopodium album = experiment: as above; conditions: four weeks
Experimental: as §5
as §4, with “basis” for “base”

[8] = seed dressing with safener 1 g of a.i./kg of seed, herbicide H2 (foramsulfuron) 40 g of a.i./ha post-emergence
[9] = safener 250 g of a.i./ha + herbicide H2 (foramsulfuron) 40 g of a.i./ha, post-emergence tank mix
[10] = safener 250 g of a.i./ha + herbicide H1 (isoxaflutole) 100 g of a.i./ha, pre-emergence tank mix
[11] = seed dressing with safener 1 g of a.i./kg of seed, herbicide H1 (isoxaflutole) 100 g of a.i./ha pre-emergence
[12] = seed dressing with safener 1 g of a.i./kg of seed, herbicide H1 (isoxaflutole) 100 g of a.i./ha pre-emergence, four weeks
[13] = herbicide H1 (isoxaflutole) 100 g of a.i./ha alone, no safener, pre-emergence
[14] = herbicide H2 (foramsulfuron) 40 g of a.i./ha alone, no safener, post-emergence

Structure (SMILES) | Safener action as % damage reduction in crop plants [1, 8] [%] | % damage in ZEAMA ([1]; in vivo) [%] | Herbicidal action as % damage in AMARE (Amaranthus retroflexus; [9]) [%] | Herbicidal action as % damage in SETVI (Setaria viridis [2]; [9]) [%] | Safener action as % damage reduction in crop plants [3, 9] [%] | Safener action as % damage reduction in ZEAMA [4, 10] [%] | Safener action as % damage reduction in crop plants [5, 11] [%] | % damage in GLXMA ([5]; in vivo) [%] | Safener action as % damage reduction in crop plants [6, 11] [%] | % damage in ZEAMA ([6]; in vivo) [%] | Herbicidal action in SETVI (in %) (Setaria viridis [7]; [10]) [%] | Herbicidal action in CHEAL (in %) (Chenopodium album; [10]) [%] | other results
O=C(O)c1cc(O)cc(O)c1 [Comp. 1050, 3,5-dihydroxybenzoic acid] | 86 | 5 | 90 | 97 | 69 | 88 | 64 | 28 | 75 | 5 | 96 | 97 | –
COc1cc(C(=O)O)cc(OC)c1O [Comp. 1272, 3,5-dimethoxy-4-hydroxybenzoic acid] | 79 | – | 92 | 95 | 53 | 52 | 55 | – | 50 | – | 98 | 94 | % damage in ZEAMA ([1]; seed dressing with safener 1 g of a.i./kg of seed, herbicide H2 (foramsulfuron) 40 g of a.i./ha post-emergence, four weeks): 7.5%; % damage in ZEAMA ([3]; safener 250 g of a.i./ha + herbicide H2 (foramsulfuron) 40 g of a.i./ha, post-emergence tank mix, visual scoring four weeks after application): 15%; % damage in ZEAMA ([4]; safener 250 g of a.i./ha + herbicide H1 (isoxaflutole) 100 g of a.i./ha, pre-emergence tank mix, visual scoring four weeks after application): 12%; % damage in GLXMA [5, 12]: 35%; % damage in ZEAMA [6, 12]: 10%
CS(=O)(=O)c1cc(C(F)(F)F)ccc1C(=O)c1cnoc1C1CC1 [Herbicide H1, isoxaflutole, reference compound] | – | – | – | – | – | – | – | 78 | – | 20 | – | – | % damage in ZEAMA ([4]; in vivo): 25%; Herbicidal action in SETVI (in %) (Setaria viridis [7]; [13]): 96%; Herbicidal action in CHEAL (in %) (Chenopodium album; [13]): 94%
COc1cc(OC)nc(NC(=O)NS(=O)(=O)c2cc(NC=O)ccc2C(=O)N(C)C)n1 [Herbicide H2, foramsulfuron, reference compound] | – | 35 | – | – | – | – | – | – | – | – | – | – | Herbicidal action as % damage in AMARE (Amaranthus retroflexus; [14]): 90%; Herbicidal action as % damage in SETVI (Setaria viridis [2]; [14]): 93%; % damage in ZEAMA ([3]; in vivo): 32%

Reference: patent publication US20040224844A1, “Use of hydroxyaromatic compounds as safeners” (Bayer CropScience GmbH, priority 2003, published 2004)
